Reference: patent publication US10799474B2, “Method of treating leukemia utilizing somatic cell reprogramming” (priority 2016, dated 2020)

Test system: normal hematopoietic stem cells/progenitor cells
Settings: mouse, in vivo
Experimental: 7. Reprogramming factors have less effect on normal hematopoietic stem cells/progenitor cells: bone marrow cells and leukemic cells of OSKM mice were co-transplanted into lethally irradiated mice. After leukemia developed in the mice, Dox was added into the drinking water of the mice in experimental group for 7 days. […] It can be seen from FIG. 5A that the ratios of normal hematopoietic stem cells and progenitor cells in the mouse bone marrows were not affected after Dox treatment. […] It can be seen from FIG. 5B that the apoptosis of normal hematopoietic stem cells and progenitor cells was not affected after Dox treatment. […] It can be seen from FIGS. 5A, 5B, and 5C that the number and apoptosis of normal hematopoietic stem cells/progenitor cells were not affected and the mice in the experimental group were recovered from leukemia.

With `C[C@H]1c2cccc(O)c2C(=O)C2=C(O)[C@]3(O)C(=O)C(C(N)=O)=C(O)[C@@H](N(C)C)[C@@H]3[C@@H](O)[C@@H]21` [Dox, doxycycline] as the compound, how does the “apoptosis of normal hematopoietic stem cells and progenitor cells in the bone marrow” value read?
The value was “not affected”.

What about the “ratios of normal hematopoietic stem cells and progenitor cells in the bone marrow” value of the same compound?
Its value is “not affected”.
